Assay results as given in US6989401B2, “Sulfonic acid derivatives of hydroxamic acids and their use as medicinal products” (Mitsubishi Pharma Corporation, priority 2000, dated 2006).
Like-named read-outs stand apart in the source and are kept apart here.

Experiments:
[1] = system: LPS in rat peritonitis (CLP; cecal ligation and puncture) model; experiment: Inhibitory effect on LPS that increases in rat peritonitis (CLP) model; assay type: in vivo; details: iv, continuous tail vein infusion 2.5 mg/kg/hr
Method: Rat peritonitis (CLP; cecal ligation and puncture) model was prepared according to the method of Wichterman et al. (J. Surg. Res. 29, 189-201 <1980>). That is, a rat fasted overnight was anesthetized with ether, and a midline laparotomy was performed and the cecum was exposed. The cecum was ligated with a 3-0 silk thread at its base and perforated two times with an 18 G injection needle. The cecum was gently squeezed to extrude feces, which were spread around the abdomen, and the sectioned part was sutured. The animal was fixed in a Borrmann cage, and physiological saline or drug solution ([…]) was continuously given from the tail vein at an administration rate of 2.5 mg/kg/hr with an infusion pump (22 M, Harvard, 5 mL/kg/hr as a dose).
After 6 hr of the CLP treatment, the animal was sacrificed with carbonic acid gas. The abdominal cavity was washed by injecting phosphate buffered saline (PBS; 37° C., 10 mL) and the abdominal cavity washing containing ascites (PLF; peritoneal lavage fluid) was recovered. The recovery weight of the obtained PLF was measured, and PLF was centrifuged (1500 rpm for 5 min, 4° C.) to recover supernatant. The blood taken from the heart was centrifuged (3000 rpm for 10 min, 4° C.) using a serum separation tube, and the serum was recovered. The concentration of LPS in the abdominal cavity and serum was measured using Toxinometer MT-285 (Waco Pure Chemical Industries) preheated to 37° C., after diluting the supernatant and serum of the recovered PLF 10^5-fold and 10^2-fold, respectively, with sterile distilled water, and adding 200 μL thereof to a limulus reagent (LAL ES, Waco Pure Chemical Industries). The amount of LPS per abdominal cavity was calculated from amount of recovered abdominal cavity washing (PLF)×LPS concentration of PLF.
The LPS inhibitory ratio of the compound was calculated as the ratio of LPS concentration of the compound administration group to LPS concentration of the physiological saline administration group.

[2] = system: LPS in E. coli culture supernatant (E. coli NIHJ JC-2 strain); experiment: Inhibitory effect on LPS in E. coli culture supernatant; assay type: cell-based; details: relative ratio to the inhibitory ratio of the compound of Example 1 as 1.0, compound 100 μM, 24 hr
Method: One platinum loop of E. coli NIHJ JC-2 strain was inoculated into a test tube containing heart infusion broth (HIB, 5 mL) and cultured for about 24 hr. The bacterial culture broth was washed three times by centrifugation (3000 rpm, 15 min, 20° C., TOMY Seiko, RL-131) using 10 mL of fresh HIB medium for one cycle of washing. The washed bacteria were prepared to an about 10^7 colony forming unit (CFU)/mL with a fresh HIB medium, and 0.2 mL of the prepared bacterial suspension was inoculated into an Erlenmeyer flask containing a fresh HIB medium (18.8 mL) (i.e., to final bacterial concentration of about 10^5 CFU/mL). A solution (1 mL) of each compound prepared to a concentration of 2 mM (final concentration of compound 100 μM) was added to the culture broth containing the bacteria. Using a shaker (RGR-1 type, manufactured by IWASHIYA, Ltd.), shake culture was conducted at 37° C., and 2 mL of culture broth after 24 hr was sampled. The sampled culture broth was filtered (DISMIC, 0.45 μm, Advantech Toyo) and diluted 10^5-fold with sterile distilled water. The resulting suspension (200 μL) was added to a limulus reagent (LAL ES, Wako Pure Chemical Industries) and LPS concentration was measured using Toxinometer MT-285 (Wako Pure Chemical Industries) preheated to 37° C.
The LPS inhibitory ratio of the compound was calculated as a ratio of the LPS concentration of the compound addition group relative to the LPS concentration of the compound non-addition group. […] The inhibitory ratio of each compound is shown in the following in Table 1 as a relative ratio to the inhibitory ratio of the compound of Example 1 as 1.0.

[3] = peritoneal lavage fluid 6 hr after CLP, read-out: LPS inhibitory ratio (%) in abdominal cavity
[4] = serum 6 hr after CLP, read-out: LPS inhibitory ratio (%) in blood

SMILES | inhibition in vivo at 2.5 mg/kg/h [1, 3] [%] | inhibition in vivo at 2.5 mg/kg/h [1, 4] [%] | inhibitory effect of compound on LPS in E. coli culture supernatant, relative ratio [2] | inhibitory effect of compound on LPS in E. coli culture supernatant, relative ratio ([2]; sodium salt)
CC(C)C[C@@H](C(=O)N[C@@H](Cc1ccccc1)C(=O)NCCCCCS(=O)(=O)[O-])C(CN1C(=O)c2ccccc2C1=O)C(=O)NO.[Na+] (single isomer, unassigned) [Example 22, 5-methyl-3(R)-[2-phenyl-1(S)-(5-sulfopentylcarbamoyl)ethylcarbamoyl]-2(R or S)-phthalimidomethylhexanohydroxamic acid sodium salt] | 80.7 | 21.6 | 0.68 | 
CNC(=O)[C@H](Cc1ccc(OCCCS(=O)(=O)[O-])cc1)NC(=O)[C@H](CC(C)C)C(Cc1ccc2ccccc2c1)C(=O)NO.[Na+] (single isomer, unassigned) [Example 13, 5-methyl-3(R)-{1(S)-methylcarbamoyl-2-[4-(3-sulfopropoxy)phenyl]ethylcarbamoyl}-2(R or S)-(2-naphthylmethyl)hexanohydroxamic acid sodium salt] | 44.7 | 74.2 | 0.87 | 
CC(C)C[C@@H](C(=O)N[C@@H](Cc1ccccc1)C(=O)NCCCCS(=O)(=O)[O-])C(CN1C(=O)c2ccccc2C1=O)C(=O)NO.[Na+] (single isomer, unassigned) [Example 21, 5-methyl-3(R)-[2-phenyl-1(S)-(4-sulfobutylcarbamoyl)ethylcarbamoyl]-2(R or S)-phthalimidomethylhexanohydroxamic acid sodium salt] | 57.1 | 55.9 | 0.79 | 
CNC(=O)[C@H](Cc1ccc(OCCCCS(=O)(=O)[O-])cc1)NC(=O)[C@H](CC(C)C)C(CN1C(=O)c2ccccc2C1=O)C(=O)NO.[Na+] (single isomer, unassigned) [Example 11, 5-methyl-3(R)-{1(S)-methylcarbamoyl-2-[4-(4-sulfobutoxy)phenyl]ethylcarbamoyl}-2(R or S)-phthalimidomethylhexanohydroxamic acid sodium salt] | 5.5 | 36.2 | 0.74 | 
CC(C)C[C@@H](C(=O)N[C@@H](Cc1ccccc1)C(=O)NCCS(=O)(=O)[O-])C(CN1C(=O)c2ccccc2C1=O)C(=O)NO.[Na+] (single isomer, unassigned) [Example 17, 5-methyl-3(R)-[2-phenyl-1(S)-(2-sulfoethylcarbamoyl)ethylcarbamoyl]-2(R or S)-phthalimidomethylhexanohydroxamic acid sodium salt] | 14.4 | 59.1 | 0.78 | 
CNC(=O)[C@H](Cc1ccc(OCCCS(=O)(=O)[O-])cc1)NC(=O)[C@@H](CC(C)C)C(CN1C(=O)c2ccccc2C1=O)C(=O)NO.[Na+] (single isomer, unassigned) [Example 9, 5-methyl-3(S)-{1(S)-methylcarbamoyl-2-[4-(3-sulfopropoxy)phenyl]ethylcarbamoyl}-2(R or S)-phthalimidomethylhexanohydroxamic acid sodium salt] |  |  |  | 0.51
CNC(=O)[C@H](Cc1ccc(OCCCCCS(=O)(=O)[O-])cc1)NC(=O)[C@H](CC(C)C)C(CN1C(=O)c2ccccc2C1=O)C(=O)NO.[Na+] (single isomer, unassigned) [Example 12, 5-methyl-3(R)-{1(S)-methylcarbamoyl-2-[4-(5-sulfopentoxy)phenyl]ethylcarbamoyl}-2(R or S)-phthalimidomethylhexanohydroxamic acid sodium salt] |  |  | 0.85 | 
